# Test results as given in patent US9771331B2, “Methods of identifying neuroprotective compounds for retinal ganglion cells” (THE JOHNS HOPKINS UNIVERSITY, priority 2005, dated 2017).
# “Also recorded” adds a separate entry of the source.
# B1: BMP13: bone morphogenetic protein, member of the TGFβ superfamily (protein, UniProt Q6KF10 336-455, looked up)
# Growth/differentiation factor …: TAFASRHGKRHGKKSRLRCSKKPLHVNFKELGWDDWIIAPLEYEAYHCEGVCDFPLRSHLEPTNHAIIQTLMNSMDPGSTPPSCCVPTKLTPISILYIDAGNNVVYKQYEDMVVESCGCR
# B2: CNTF: peptide trophic factor (protein, UniProt P26441 1-200, looked up)
# Ciliary neurotrophic factor: MAFTEHSPLTPHRRDLCSRSIWLARKIRSDLTALTESYVKHQGLNKNINLDSADGMPVASTDQWSELTEAERLQENLQAYRTFHVLLARLLEDQQVHFTPTEGDFHQAIHTLLLQVAAFAYQIEELMILLEYKIPRNEADGMPINVGDGGLFEKKLWGLKVLQELSQWTVRSIHDLRFISSHQTGIPARGSHYIANNKKM
# B3: TGFβ2: growth factor tested at 50 ng/ml on cultured RGCs (protein, UniProt P61812 303-414, looked up)
# Transforming growth factor …: ALDAAYCFRNVQDNCCLRPLYIDFKRDLGWKWIHEPKGYNANFCAGACPYLWSSDTQHSRVLSLYNTINPEASASPCCVSQDLEPLTILYYIGKTPKIEQLSNMIVKSCKCS
# How the values were obtained:
# [1] = test system: retinal ganglion cells (RGCs); test: High-content neurite outgrowth screen of purified retinal ganglion cell cultures (number of outgrowth neurons); type: cell-based, rat; settings: for activity compared with TPAO / activity of compounds similar to TPAO: 4 different concentrations; for number of outgrowth neurons: 50 ng/ml, 120 hours, versus cultures grown in medium only
# Procedure: Retinal ganglion cell harvest and immunopurification are performed as described above and in the specific Examples, below. A concentration range of neuroprotective compounds to be validated is prepared and added to test wells (e.g., to achieve final concentrations of 3 μM, 10 μM, 15 μM, 30 μM, 60 μM, 90 μM, 120 μM, and 150 μM in 1% DMSO in each well). For a neuroprotective compound obtained from the […]™ library, for example, 1 mg of desiccated compound can be resuspended in 22.2 μl of DMSO to a final stock solution of 150 mM. […] Afterwards, the solution can be stored in the dark at −20° C.
# Neuroprotective compounds and positive control factors are added to the appropriate wells of a 96-well plate (e.g., 25 μl to each well in a 5× concentration prior to the seeding cells in a volume of 100 μl giving a final volume of 125 μl). Cells are incubated, stained, and imaged as described above and in the specific Examples, below. Experiments preferably are performed in duplicate. Following normalization to a negative control (e.g., a well containing medium only), a dose response curve can be plotted. Statistical software (e.g., from SPSS) can be used to perform curve fitting and analysis.
# An efficient two-step immunomagnetic purification of a mixed cell population obtained from postnatal rat retina is used to provide a highly enriched population of RGCs for culture. The first step is an immunomagnetic depletion of […] non-RCGS using a cd11b/c. The second step is an immunomagnetic selection of RGCs with an antibody that binds Thy1 on the RGC cell surface. The cells are then released from the magnetic beads by digesting the DNA linker with a low concentration of DNase. Cells are grown on poly-d-lysine/laminin coated plastic plates in a basic medium (Neurobasal media, B27 supplement, glutamine, and penicillin/streptomycin).
# (§1) The purified Thy-1 immunoreactive cells are resuspended in growth media (Neurobasal media, B27 supplement, 2 mM glutamine, and 1 U/ml penicillin/streptomycin) and quantified using a hematocytometer. Cells are seeded in 100 μl at a density of 4000 cells/well (150/mm^2) in 96 well culture dishes (Falcon) that had been sequentially coated with poly-d-lysine (0.01 mg/ml) and laminin (0.01 μg/μl) (Sigma). Each well either contains 25 μl of media alone or 5× drug or 5×BDNF and forskolin. Final concentrations are: DMSO (1%), drug (20 to 30 μM), BDNF (50 ng/ml) and forskolin (10 μM). Culture dishes are placed in an incubator maintained at 37° C. and 5% CO2. One hour after seeding, a post-seeding viability is determined by staining with Hoechst and TOTO3 and calculating the percent of live cells.
# (§2) After 120 hours of incubation, cells are stained with 5 μM Hoechst and 10 μM Calcein AM (Molecular Probes). Calcein AM (Calcein acetoxymethyl), the dye that is used to stain living cells and their neurites, is a green dye that is permeant to living cells. After internalization by cells, the nonfluorescent calcein AM is converted to fluorescent calcein upon hydrolysis of the acetoymethyl ester by intracellular esterases. Cleavage of the AM group occurs spontaneously when calcein AM is suspended in aqueous solution resulting in a significant increase in background fluorescence over time. TOTO3, which stains the nuclei of dead cells, can be used to determine viability.
# Fifteen stereotypic field are autofocus imaged on a Cellomics […]® High Content Scan Reader using epifluorescence and filter sets corresponding to each of the two dyes. This instrument employs a Zeiss fluorescence microscope, a temperature and CO2 live cell chamber, an integrated liquid handling system, and image analysis software that permits staining, imaging, and analysis of the cells and their neurites in approximately 5 hours per plate.
# [2] = test system: retinal ganglion cells (RGCs); test: RGCs on glass coverslips in 24-well plates, neurofilament immunostaining, counting neurons with neurite extension; type: cell-based, rat; settings: neurofilament antibody
# Procedure: FIG. 4. […] Immunopurified postnatal rat RGCs were cultured in increasing concentrations of TPAO in the presence of 1% DMSO. […] The effect of TPAO is synergistic with both BDNF and forskolin.
# Although the developed technique for performing cell culture is effective and objective, it is desirable to assess the outcome of a screen using a different technique. Thus, for example, the technique of culturing cells on poly d-lysine and laminin coated coverslips in 24 well culture dishes under various culture conditions can be followed by immunostaining with anti-neurofilament antibody and quantitative analysis.
# After determination of the dose response relationship and concentration at which the neuroprotective compound has it is maximal effect in culture, cells can be cultured on poly d-lysine and laminin coated cover slips (BD Pharmingen) in the presence of the neuroprotective compound, with appropriate positive and negative controls. […]
# For example, in one embodiment cells are fixed with 4% paraformaldehyde, washed with PBS, blocked with PBS/0.1% Triton X/20% goat serum, and incubated overnight in PBS/0.1% Triton X/20% goat serum containing 1:100 dilution of rabbit anti-neurofilament (68 kd) antibody (Chemicon). […] The number of cells with neurite outgrowth at 3 different radii is determined (Scholl analysis) and compared using Student t test.
# RGCs = settings: peptide trophic factors; Meyer-Franke et al. 1995; cited from earlier work
# [3] = test system: retinal ganglion cells (RGCs); test: Overall cell survival of cultured RGCs after 120 hours; type: cell-based, rat; settings: 50 ng/ml
# Procedure: as §1, §2
# Images are processed using the Cellomics Extended Neurite Outgrowth software program. In the initial image processing, cells are identified on the Hoechst channel and selected based on size such that of clusters of cells may be excluded from analysis. In addition, each nuclei on the Hoechst channel is matched to a calcein-stained cell and counted as a “valid neuron” (i.e., a live cell). Neurons can be further selected based on size in the calcein channel. The Extended Neurite Outgrowth program is used to trace neurites extending from these selected neurons. The mean neurite length, mean neurite count, mean number of branch points, and mean number of crosspoints are determined. In addition, the percent of cells with neurite features (e.g., neurite length, neurite count) surpassing a threshold of one standard deviation above the mean neurite characteristic of a set of reference wells containing cells and growth medium without additional growth factors is determined. The “neurite outgrowth” measurement is based on the combined mean neurite length and mean neurite count.
Molecule,number of outgrowth neurons [1],overall cell survival (number of surviving cells) [3],other results
"CC1(C)CC(=NOC(=O)c2ccccc2)CC(C)(C)N1 [2,2,6,6-tetramethyl-4-piperidinone O-benzoyloxime]",,,activity compared with TPAO [1]: less than that of TPAO; activity of compounds similar to TPAO [1]: showed activity
"CC1(C)CC(=NNC(N)=S)CC(C)(C)N1 [2,2,6,6-tetramethyl-4-piperidinone thiosemicarbazone]",,,activity compared with TPAO [1]: less than that of TPAO; activity of compounds similar to TPAO [1]: showed activity
"CC(=O)ON=C1CC(C)(C)NC(C)(C)C1 [TPAO, 2,2,6,6-tetramethyl-4-piperidinone O-acetyloxime]",,,effect in combination with BDNF and forskolin [1]: synergistic; dose dependence of survival/growth of neurite-bearing RGCs ([1]; dose response 3 μM to 150 μM): dose-dependent manner; activity if the medium was changed at 24 hours ([1]; medium change at 24 hours): lost; effect on neurons with a neurite extension greater than one cell body in diameter [2]: demonstrated
BDNF: peptide trophic factor known to promote RGC survival; positive control,significantly increased; also recorded: Statistically significant increases,slight increase in the number of surviving cells that did not reach statistical significance,concentration of maximal effect on RGCs (RGCs): 10 ng/mL
GDF8: BMP-related myostatin/Gdf8 (Growth and differentiation factor 8),significantly increased; also recorded: Statistically significant increases,slight increase in the number of surviving cells that did not reach statistical significance,
TGFα: growth factor tested at 50 ng/ml on cultured RGCs,No significant change,no effect,
TGFβ1: growth factor tested at 50 ng/ml on cultured RGCs,No significant change,no effect,
B1,significantly increased; also recorded: Statistically significant increases,no effect,
B2,,,concentration of maximal effect on RGCs (RGCs): 0.1 ng/mL
B3,No significant change,no effect,
